Earlier results, collected in patent US20060264388A1, “Method for treating liver cancer by intrahepatic administration of nemorubicin” (priority 2003, published 2006).
Counter-ions that a name gives are not always drawn.

System: metastatic colorectal cancer
Details: after failure of 5-FU leucovorin; cited from earlier work

For `CCc1c2c(nc3ccc(OC(=O)N4CCC(N5CCCCC5)CC4)cc13)-c1cc3c(c(=O)n1C2)COC(=O)[C@]3(O)CC` [Irinotecan hydrochloride trihydrate], the median survival time is listed as “approximately 9 months” and the response rate is listed as 15%.
